{
  "source": "patent US20140329914A1",
  "about": "“Amphiphilic Peptides for Thoracic Air Leakage Occlusion” (3-D Matrix Ltd., priority 2011, published 2014)",
  "key": {"[1]": {"conditions": "in vivo", "description": "All animals were weighed with a digital platform scale (DUE600ST/M3s-A, Mettler Toledo Ltd.) on the day of operation, 5 days post-operation, and the day of autopsy.\nFood consumption was checked every day. Any remaining amount of food was weighed with a digital platform scale (DUE600ST/ID3s-A, Mettler Toledo Ltd.) when present. If there was no uneaten diet, food consumption was recorded as 500 g."}, "[2]": {"parameters": "species or system miniature swine (Gottingen)", "conditions": "in vivo", "description": "Blood for hematological examination was collected by catheter on the day of operation, 3 days after operation, and 7 days after operation, and the day of necropsy. Blood was collected into EDTA-2K coated blood collection tubes (VP-DK052K05, TERUMO Ltd.). Red blood cell count (RBC), white blood cell count (WBC), hemoglobin concentration (HGB), hematocrit (HCT), and platelet count (PLT) were measured using a multi-channel blood cell counter (Sysmex K-4500, Sysmex"}, "[3]": {"experiment": "Blood biochemical examination", "format": "in vivo, miniature swine (Gottingen)", "description": "Blood for biochemical examination was centrifuged at 3,000 rpm at 4° C. for 15 min to obtain serum samples used to measure AST, ALT, ALP, total protein (TP), albumin (Alb), protein fraction (alb), alpha 1 globulin (α1-glb), alpha 2 globulin (α-glb), beta globulin (β-glb), gamma globulin (γ-glb), albumin/globulin ratio (A/G), total bilirubin (T-Bil), urea nitrogen (UN), creatinine (CRE), glucose (Glu), total cholesterol (T-Cho), triglycerides (TG), sodium, potassium, chloride, calcium, inorganic phosphate (IP), and C-reactive protein (CRP)."}},
  "data": [
    {"compound": "CC(=O)N[C@@H](CCCNC(=N)N)C(=O)N[C@@H](C)C(=O)N[C@@H](CC(=O)O)C(=O)N[C@@H](C)C(=O)N[C@@H](CCCNC(=N)N)C(=O)N[C@@H](C)C(=O)N[C@@H](CC(=O)O)C(=O)N[C@@H](C)C(=O)N[C@@H](CCCNC(=N)N)C(=O)N[C@@H](C)C(=O)N[C@@H](CC(=O)O)C(=O)N[C@@H](C)C(=O)N[C@@H](CCCNC(=N)N)C(=O)N[C@@H](C)C(=O)N[C@@H](CC(=O)O)C(=O)N[C@@H](C)C(N)=O", "note": "[RADA16, Ac-(RADA)4-CONH2]", "values": [
      {"measurement": "body weight and food intake", "setting": "[1]", "value": "generally maintained"},
      {"measurement": "general condition", "setting": "[1]", "value": "good general condition"},
      {"measurement": "WBC change", "setting": "[2]", "value": "elevated level of WBC"},
      {"measurement": "CRE", "setting": "[3]; AD3: 3 days after treatment, per animal and Mean (n=3)", "value": 1.12, "unit": "mg/dL"},
      {"measurement": "CRP change", "setting": "[3]; in vivo", "value": "elevated level of CRP"}
    ]}
  ]
}
